# How the values were obtained:
# [1] = test system: Staphylococcus aureus ATCC 12600; assay: MIC, spiral gradient endpoint assay, S. aureus ATCC 12600; format: cell-based; details: ATCC12600; for MIC: Staphylococcus aureus ATCC 12600
# [2] = test system: methicillin-resistant Staphylococcus aureus (MRSA) strain BAA-1717 (USA-300); assay: MIC, spiral gradient endpoint assay, MRSA BAA-1717; format: cell-based; details: for MIC: Staphylococcus aureus, read-out: MIC S. aureus MRSA BAA-1717
# [3] = test system: Acinetobacter baumannii ATCC 19606; assay: MIC, spiral gradient endpoint assay, A. baumannii; format: cell-based; details: for MIC: ATCC19606
# [4] = molecular target: E. coli RNA polymerase σ^70 holoenzyme (Escherichia coli, UniProt P0A8T7+P0A8V2); assay: Fluorescence-detected RNA polymerase assay, E. coli RNA polymerase; format: biochemical; details: read-out: IC50 E. coli RNAP
# [5] = test system: Burkholderia pseudomallei Human/Blood/OH/US/1994; assay: microbe, parasite or virus in culture; format: cell-based; details: for MIC: Burkholderia pseudomallei, read-out: MIC B. pseudomallei Human/Blood/OH
# [6] = test system: methicillin-resistant Staphylococcus aureus (MRSA) strain BAA-1707 (USA-400, MW2); assay: Antibacterial efficacy in mouse model of Staphylococcus aureus systemic infection (peritonitis model); format: in vivo, Swiss Webster mice; details: mice
# [7] = test system: methicillin-resistant Staphylococcus aureus (MRSA) strain BAA-1707 (USA-400; MW2); assay: MIC, spiral gradient endpoint assay, MRSA BAA-1707; format: cell-based; details: for MIC: Staphylococcus aureus, read-out: MIC S. aureus MRSA BAA-1707
# [8] = test system: Bacillus anthracis Vollum 1b; assay: microbe, parasite or virus in culture; format: cell-based; details: for MIC: Bacillus anthracis, VOLLUM1B, read-out: MIC B. anthracis Vollum-1b
# [9] = test system: Mycobacterium tuberculosis H37Rv; assay: MIC, microplate Alamar Blue assay, M. tuberculosis; format: cell-based
# Burkholderia mallei CHN7 = assay: microbe, parasite or virus in culture; format: cell-based; details: for MIC: Burkholderia mallei, CHN7, read-out: MIC B. mallei CHN7
# Brucella melitensis 16M = assay: microbe, parasite or virus in culture; format: cell-based; details: for MIC: Brucella melitensis, 16M, read-out: MIC B. melitensis 16M
# [10] = test system: Francisella tularensis SCHU4; assay: microbe, parasite or virus in culture; format: cell-based; details: for MIC: Francisella tularensis, SCHU4, read-out: MIC F. tularensis SCHU4
# [11] = test system: rifampin-resistant Staphylococcus aureus (RRSA) strain ATCC 12600-Rif (H526N); assay: MIC, spiral gradient endpoint assay, RRSA 12600-Rif; format: cell-based; details: for MIC: Staphylococcus aureus, ATCC12600, read-out: MIC S. aureus RRSA 12600-Rif
# [12] = test system: Escherichia coli D21f2tolC; assay: MIC, spiral gradient endpoint assay, E. coli D21f2tolC; format: cell-based; details: for MIC: Escherichia coli, D21F2TOLC, read-out: MIC E. coli D21f2toIC
# [13] = test system: vancomycin-intermediate Staphylococcus aureus (VISA) strain NRS 1; assay: MIC, spiral gradient endpoint assay, VISA NRS 1; format: cell-based; details: for MIC: Staphylococcus aureus, read-out: MIC S. aureus VISA NRS1
# [14] = test system: linezolid-resistant Staphylococcus aureus (LRSA) strain NRS 120; assay: MIC, spiral gradient endpoint assay, LRSA NRS 120; format: cell-based; details: for MIC: Staphylococcus aureus, NRS120, read-out: MIC S. aureus LRSA NRS120
# [15] = molecular target: S. aureus RNA polymerase core enzyme, S. aureus σ^A (Staphylococcus aureus, UniProt P47768+Q2G0N5); assay: Fluorescence-detected RNA polymerase assay, S. aureus RNA polymerase; format: biochemical; details: read-out: IC50 S. aureus RNAP
# [16] = molecular target: M. tuberculosis RNA polymerase core enzyme, M. tuberculosis σ^A (Mycobacterium tuberculosis, UniProt P9WGY7+P9WGY9); assay: Fluorescence-detected RNA polymerase assay, M. tuberculosis RNA polymerase; format: biochemical; details: read-out: IC50 M. tuberculosis RNAP
# Yersinia pestis C092 = assay: microbe, parasite or virus in culture; format: cell-based
# [17] = Acinetobacter baumannii ATCC 19606
# [18] = intravenous administration 0 h post-infection
# [19] = oral administration 1 h pre-infection
# Chain of M. tuberculosis RNA polymerase core enzyme, M. tuberculosis σ^A (P9WGI1 whole entry): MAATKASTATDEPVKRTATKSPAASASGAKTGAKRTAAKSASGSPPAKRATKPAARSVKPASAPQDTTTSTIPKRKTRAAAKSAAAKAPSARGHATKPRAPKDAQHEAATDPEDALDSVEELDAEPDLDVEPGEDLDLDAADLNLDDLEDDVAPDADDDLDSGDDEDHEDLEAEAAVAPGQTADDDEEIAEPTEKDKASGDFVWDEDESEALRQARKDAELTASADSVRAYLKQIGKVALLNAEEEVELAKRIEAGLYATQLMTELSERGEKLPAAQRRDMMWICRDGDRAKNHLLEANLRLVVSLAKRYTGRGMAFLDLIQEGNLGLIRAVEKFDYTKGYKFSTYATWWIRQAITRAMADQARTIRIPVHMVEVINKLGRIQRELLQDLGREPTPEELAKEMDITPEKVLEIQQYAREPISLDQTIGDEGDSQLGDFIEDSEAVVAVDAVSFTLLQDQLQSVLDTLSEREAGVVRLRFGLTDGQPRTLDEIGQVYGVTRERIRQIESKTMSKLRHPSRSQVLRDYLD
# Chain of M. tuberculosis RNA polymerase core enzyme, M. tuberculosis σ^A (P9WGY5 whole entry, further chain): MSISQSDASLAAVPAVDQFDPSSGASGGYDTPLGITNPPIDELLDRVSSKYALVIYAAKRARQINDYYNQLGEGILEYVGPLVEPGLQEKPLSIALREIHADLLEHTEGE
# Chain of M. tuberculosis RNA polymerase core enzyme, M. tuberculosis σ^A (P9WGY7 whole entry): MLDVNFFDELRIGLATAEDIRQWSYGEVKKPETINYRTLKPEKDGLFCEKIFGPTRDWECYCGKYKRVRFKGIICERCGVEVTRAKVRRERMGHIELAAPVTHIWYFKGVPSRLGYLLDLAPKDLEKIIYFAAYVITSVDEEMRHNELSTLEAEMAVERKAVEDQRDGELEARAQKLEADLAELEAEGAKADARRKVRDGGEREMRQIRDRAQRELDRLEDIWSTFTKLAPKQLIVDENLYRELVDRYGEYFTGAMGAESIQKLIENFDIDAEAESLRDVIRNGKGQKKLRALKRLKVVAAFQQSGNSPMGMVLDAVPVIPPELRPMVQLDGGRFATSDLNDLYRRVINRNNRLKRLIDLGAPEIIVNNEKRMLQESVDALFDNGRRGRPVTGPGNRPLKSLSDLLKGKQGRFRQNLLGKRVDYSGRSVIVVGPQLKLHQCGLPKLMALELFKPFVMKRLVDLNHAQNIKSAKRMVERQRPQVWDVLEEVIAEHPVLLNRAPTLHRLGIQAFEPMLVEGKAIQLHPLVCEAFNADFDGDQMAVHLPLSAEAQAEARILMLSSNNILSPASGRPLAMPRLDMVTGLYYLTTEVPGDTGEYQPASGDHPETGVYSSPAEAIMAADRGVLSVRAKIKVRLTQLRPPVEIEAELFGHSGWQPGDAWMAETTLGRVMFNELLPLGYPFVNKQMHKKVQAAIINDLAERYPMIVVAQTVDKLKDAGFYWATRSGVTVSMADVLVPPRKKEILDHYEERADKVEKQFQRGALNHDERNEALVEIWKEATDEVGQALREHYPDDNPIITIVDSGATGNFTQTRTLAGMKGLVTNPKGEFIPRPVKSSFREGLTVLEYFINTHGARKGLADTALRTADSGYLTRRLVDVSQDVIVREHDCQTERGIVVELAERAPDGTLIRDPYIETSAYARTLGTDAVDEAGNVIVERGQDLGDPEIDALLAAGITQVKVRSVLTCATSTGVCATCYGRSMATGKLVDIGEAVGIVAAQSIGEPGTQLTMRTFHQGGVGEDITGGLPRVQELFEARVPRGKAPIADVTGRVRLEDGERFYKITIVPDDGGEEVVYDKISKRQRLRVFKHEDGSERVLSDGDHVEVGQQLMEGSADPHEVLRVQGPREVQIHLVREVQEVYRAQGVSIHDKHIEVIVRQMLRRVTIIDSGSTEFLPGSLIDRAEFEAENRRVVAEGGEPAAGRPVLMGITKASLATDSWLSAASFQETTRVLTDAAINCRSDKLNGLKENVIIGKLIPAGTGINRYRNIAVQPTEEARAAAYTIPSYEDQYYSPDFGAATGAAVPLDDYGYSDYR
# Chain of M. tuberculosis RNA polymerase core enzyme, M. tuberculosis σ^A (P9WGY9 whole entry): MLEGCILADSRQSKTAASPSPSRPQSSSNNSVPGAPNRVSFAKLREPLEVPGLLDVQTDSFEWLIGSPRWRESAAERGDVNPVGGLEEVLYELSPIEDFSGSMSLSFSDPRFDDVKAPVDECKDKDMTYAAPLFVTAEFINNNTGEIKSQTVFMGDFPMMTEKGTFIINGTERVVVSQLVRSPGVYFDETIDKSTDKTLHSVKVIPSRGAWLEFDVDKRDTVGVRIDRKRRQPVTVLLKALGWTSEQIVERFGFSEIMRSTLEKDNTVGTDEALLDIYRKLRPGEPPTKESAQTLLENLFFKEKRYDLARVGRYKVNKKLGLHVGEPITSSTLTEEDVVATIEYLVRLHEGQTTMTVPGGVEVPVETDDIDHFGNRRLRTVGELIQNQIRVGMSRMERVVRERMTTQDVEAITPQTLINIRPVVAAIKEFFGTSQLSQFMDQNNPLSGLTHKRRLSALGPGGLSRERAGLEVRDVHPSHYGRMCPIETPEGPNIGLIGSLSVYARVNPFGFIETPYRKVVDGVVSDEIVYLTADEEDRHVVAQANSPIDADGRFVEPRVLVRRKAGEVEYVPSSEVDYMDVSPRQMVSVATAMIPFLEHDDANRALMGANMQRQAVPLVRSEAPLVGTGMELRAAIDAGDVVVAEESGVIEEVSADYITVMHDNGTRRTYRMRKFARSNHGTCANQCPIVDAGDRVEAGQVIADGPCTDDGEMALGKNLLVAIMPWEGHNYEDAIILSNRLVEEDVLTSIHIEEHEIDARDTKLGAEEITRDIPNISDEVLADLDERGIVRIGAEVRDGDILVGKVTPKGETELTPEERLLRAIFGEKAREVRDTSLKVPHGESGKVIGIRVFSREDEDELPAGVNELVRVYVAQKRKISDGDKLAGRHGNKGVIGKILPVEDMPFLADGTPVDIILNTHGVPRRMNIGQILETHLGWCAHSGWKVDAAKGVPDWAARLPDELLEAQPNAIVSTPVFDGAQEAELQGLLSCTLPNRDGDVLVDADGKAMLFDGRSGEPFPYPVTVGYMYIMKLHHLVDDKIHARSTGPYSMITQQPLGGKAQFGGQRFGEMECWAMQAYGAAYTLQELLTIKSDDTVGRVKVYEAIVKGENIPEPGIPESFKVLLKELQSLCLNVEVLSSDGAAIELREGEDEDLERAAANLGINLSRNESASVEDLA
# Chain of M. tuberculosis RNA polymerase core enzyme, M. tuberculosis σ^A (P9WGZ1 whole entry, further chain): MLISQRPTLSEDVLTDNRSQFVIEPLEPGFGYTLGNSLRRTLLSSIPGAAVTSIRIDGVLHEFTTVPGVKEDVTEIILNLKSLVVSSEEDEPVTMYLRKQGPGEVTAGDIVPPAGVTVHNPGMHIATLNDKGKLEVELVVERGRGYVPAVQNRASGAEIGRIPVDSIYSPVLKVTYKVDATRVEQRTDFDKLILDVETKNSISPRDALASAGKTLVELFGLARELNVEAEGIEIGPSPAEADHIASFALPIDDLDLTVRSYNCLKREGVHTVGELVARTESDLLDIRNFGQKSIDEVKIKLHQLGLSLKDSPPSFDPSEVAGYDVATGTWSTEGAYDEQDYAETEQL
Structure (SMILES),MIC [1],MIC [2],"MIC [3, 17]",IC50 [4],MIC [5],"PD50 [6, 18]",MIC [7],MIC [8],MIC [9],MIC (Burkholderia mallei CHN7),MIC (Brucella melitensis 16M),MIC [10],MIC [11],MIC [12],IC50 [15],IC50 [16],other results
"COC(=O)N/C=C/CCC(C)c1cc(O)c(C(=O)C(C)=Cc2ccc(CC(C)C)s2)c(=O)o1 (mixture of isomers) [APY60, methyl (E)-5-(4-hydroxy-5-((E/Z)-3-(5-isobutylthiophen-2-yl)-2-methylacryloyl)-6-oxo-6H-pyran-2-yl)hex-1-enylcarbamate]",0.4 µg/mL,0.5 µg/mL,9 µg/mL,10 nM,30 µg/mL,20 mg/kg,0.4 µg/mL,3 µg/mL,10 µg/mL,30 µg/mL,6 µg/mL,10 µg/mL,0.7 µg/mL,0.2 µg/mL,–,–,–
"COC(=O)N/C=C/CCC(C)c1cc(O)c(C(=O)C(C)=Cc2ccc(CCC(F)(F)F)s2)c(=O)o1 (mixture of isomers) [APY61, methyl (E)-5-(5-((E/Z)-3-(5-(3,3,3-trifluoropropyl)thiophen-2-yl)-2-methylacryloyl)-4-hydroxy-6-oxo-6H-pyran-2-yl)hex-1-enylcarbamate]",0.7 µg/mL,0.9 µg/mL,10 µg/mL,20 nM,30 µg/mL,20 mg/kg,0.9 µg/mL,6 µg/mL,10 µg/mL,30 µg/mL,> 50 µg/mL,30 µg/mL,1 µg/mL,0.2 µg/mL,–,–,MIC [13]: 0.4 µg/mL; MIC [14]: 0.4 µg/mL
"COC(=O)N/C=C/CCCc1cc(O)c(C(=O)C(C)=Cc2ccc(CCC(C)C)s2)c(=O)o1 (mixture of isomers) [APY91, methyl ((1E)-5-(4-hydroxy-3-(3-(5-isopentylthiophen-2-yl)-2-methylacryloyl)-2-oxo-2H-pyran-6-yl)pent-1-en-1-yl)carbamate]",0.7 µg/mL,2 µg/mL,9 µg/mL,20 nM,–,–,2 µg/mL,–,50 µg/mL,–,–,–,2 µg/mL,0.08 µg/mL,600 nM,400 nM,–
"CCOCc1ccc(C=C(C)C(=O)c2c(O)cc(C(C)CC/C=C/NC(=O)OC)oc2=O)s1 (mixture of isomers) [APY108, methyl ((1E)-5-(3-(3-(5-(ethoxymethyl)thiophen-2-yl)-2-methylacryloyl)-4-hydroxy-2-oxo-2H-pyran-6-yl)hex-1-en-1-yl)carbamate]",10 µg/mL,20 µg/mL,> 40 µg/mL,300 nM,–,–,20 µg/mL,–,30 µg/mL,–,–,–,20 µg/mL,0.4 µg/mL,–,700 nM,–
"CCCC/C(C)=C/C=C(\C)C(=O)c1c(O)cc([C@H](C)CC/C=C/NC(=O)OC)oc1=O [Myx B, myxopyronin B, reference compound]",–,–,–,10 nM,–,20 mg/kg,–,–,–,–,–,–,–,–,70 nM,100 nM,"MIC S. aureus 12600 ([1]; Staphylococcus aureus): 0.8 µg/mL; MIC S. aureus MRSA BAA-1717 [2]: 0.8 µg/mL; inhibition of Acinetobacter baumannii (in words) [3]: does not inhibit; MIC A. baumannii 19606 [3, 17]: >40 µg/mL; MIC S. aureus VISA NRS1 [13]: 0.5 µg/mL; MIC B. pseudomallei Human/Blood/OH [5]: 30 µg/mL; MIC Y. pestis C092 (Yersinia pestis C092): 50 µg/mL; PD50 [6, 19]: 50 mg/kg; MIC S. aureus MRSA BAA-1707 [7]: 0.9 µg/mL; MIC B. anthracis Vollum-1b [8]: 6 µg/mL; MIC M. tuberculosis H37Rv [9]: 2 µg/mL; MIC S. aureus LRSA NRS120 [14]: 0.5 µg/mL; MIC B. mallei CHN7 (Burkholderia mallei CHN7): 6 µg/mL; MIC B. melitensis 16M (Brucella melitensis 16M): 2 µg/mL; MIC F. tularensis SCHU4 [10]: 2 µg/mL; MIC S. aureus RRSA 12600-Rif [11]: 1 µg/mL; MIC E. coli D21f2toIC ([12]; Escherichia coli D21f2tolC): 0.1 µg/mL"
"COC(=O)N/C=C/CCC(C)c1cc(O)c(C(=O)C(C)=Cc2ccc(OCC(F)(F)F)s2)c(=O)o1 (mixture of isomers) [APY116, methyl ((1E)-5-(4-hydroxy-3-(2-methyl-3-(5-(2,2,2-trifluoroethoxy)thiophen-2-yl)acryloyl)-2-oxo-2H-pyran-6-yl)hex-1-en-1-yl)carbamate]",1 µg/mL,2 µg/mL,> 40 µg/mL,30 nM,–,20 mg/kg,2 µg/mL,–,6 µg/mL,–,–,–,2 µg/mL,0.2 µg/mL,–,–,"MIC [13]: 0.7 µg/mL; PD50 [6, 19]: 50 mg/kg; MIC [14]: 0.8 µg/mL"
"COC(=O)N/C=C/CCCc1cc(O)c(C(=O)C(C)=Cc2ccc(CCCC(F)(F)F)s2)c(=O)o1 (mixture of isomers) [APY90, methyl ((1E)-5-(4-hydroxy-3-(2-methyl-3-(5-(4,4,4-trifluorobutyl)thiophen-2-yl)acryloyl)-2-oxo-2H-pyran-6-yl)pent-1-en-1-yl)carbamate]",0.9 µg/mL,2 µg/mL,10 µg/mL,30 nM,–,–,2 µg/mL,–,10 µg/mL,–,–,–,2 µg/mL,0.07 µg/mL,800 nM,300 nM,–
"COC(=O)N/C=C/CCC(C)c1cc(O)c(C(=O)C(C)=Cc2ccc(CCCC(F)(F)F)s2)c(=O)o1 (mixture of isomers) [APY81, methyl ((1E)-5-(4-hydroxy-3-(2-methyl-3-(5-(4,4,4-trifluorobutyl)thiophen-2-yl)acryloyl)-2-oxo-2H-pyran-6-yl)hex-1-en-1-yl)carbamate]",0.4 µg/mL,0.9 µg/mL,20 µg/mL,10 nM,10 µg/mL,–,0.5 µg/mL,2 µg/mL,10 µg/mL,10 µg/mL,2 µg/mL,30 µg/mL,0.8 µg/mL,0.08 µg/mL,30 nM,50 nM,–

# From US9592221B2, “Antibacterial agents: aryl myxopyronin derivatives” (priority 2012, dated 2017)
